Laboratory results as given in patent USRE49080E1, “Glycoside derivatives and uses thereof” (Novartis AG, priority 2009, dated 2022).

What was measured:
[1] = target: human sodium glucose co-transporter 2 (Homo sapiens (Human), UniProt P31639); test: SGLT-2 assay: 14C-AMG uptake in CHO-hSGLT2 or HEK-hSGLT2 cells; type: cell-based; conditions: n = 1-4, cells stably transfected with hSGLT2, read-out: SGLT2 IC50 nM (n = 1-4)
Description: These cell lines transport 14 C-labelled alpha-methyl-glucopyranoside (14 C-AMG, Amersham) into the interior of the cell in sodium-dependent manner.
(§1) The SGLT-2 assay is carried out as follows: CHO-hSGLT2 cells are cultivated in Ham's F12 Medium (BioWhittaker) with 10% foetal calf serum and 250 μg/mL zeocin (Invitrogen), and HEK293-hSGLT2 cells are cultivated in DMEM medium with 10% foetal calf serum and 250 μg/mL zeocin (Invitrogen). The cells are detached from the culture flasks by washing twice with PBS and subsequently treating with trypsin/EDTA. After the addition of cell culture medium the cells are centrifuged, resuspended in culture medium and counted in a Casy cell counter. Then 40,000 cells per well are seeded into a white, 96-well plate coated with poly-D-lysine and incubated overnight at 37° C., 5% CO2. The cells are washed twice with 250 μl of assay buffer (Hanks Balanced Salt Solution, 137 mM NaCl, 5.4 mM KCl, 2.8 mM CaCl2, 1.2 mM MgSO4 and 10 mM HEPES (pH 7.4), 50 μg/mL of gentamycin). 250 μl of assay buffer and 5 μl of test compound are then added to each well and the plate is incubated for a further 15 minutes in the incubator. 5 μl of 10% DMSO are used as the negative control. The reaction is started by adding 5 μl of 14 C-AMG (0.05 μCi) to each well. After 2 hours' incubation at 37° C., 5% CO2, the cells are washed again with 250 μl of PBS […] and then lysed by the addition of 25 μl of 0.1 N NaOH (5 min. at 37° C.). 200 μl of MicroScint20 (Packard) are added to each well and incubation is continued for a further 20 min at 37° C. After this incubation the radioactivity of the 14 C-AMG absorbed is measured in a Topcount (Packard) using a 14 C scintillation program.

human SGLT1 = human SGLT1 (Homo sapiens (Human), UniProt P13866); test: SGLT1 assay: analogous test with hSGLT1 cDNA expressed in CHO-K1 or HEK293 cells; type: cell-based; conditions: n = 1-4; 14C-AMG uptake, cells expressing hSGLT1
Sequence of human SGLT1 (P13866 whole entry): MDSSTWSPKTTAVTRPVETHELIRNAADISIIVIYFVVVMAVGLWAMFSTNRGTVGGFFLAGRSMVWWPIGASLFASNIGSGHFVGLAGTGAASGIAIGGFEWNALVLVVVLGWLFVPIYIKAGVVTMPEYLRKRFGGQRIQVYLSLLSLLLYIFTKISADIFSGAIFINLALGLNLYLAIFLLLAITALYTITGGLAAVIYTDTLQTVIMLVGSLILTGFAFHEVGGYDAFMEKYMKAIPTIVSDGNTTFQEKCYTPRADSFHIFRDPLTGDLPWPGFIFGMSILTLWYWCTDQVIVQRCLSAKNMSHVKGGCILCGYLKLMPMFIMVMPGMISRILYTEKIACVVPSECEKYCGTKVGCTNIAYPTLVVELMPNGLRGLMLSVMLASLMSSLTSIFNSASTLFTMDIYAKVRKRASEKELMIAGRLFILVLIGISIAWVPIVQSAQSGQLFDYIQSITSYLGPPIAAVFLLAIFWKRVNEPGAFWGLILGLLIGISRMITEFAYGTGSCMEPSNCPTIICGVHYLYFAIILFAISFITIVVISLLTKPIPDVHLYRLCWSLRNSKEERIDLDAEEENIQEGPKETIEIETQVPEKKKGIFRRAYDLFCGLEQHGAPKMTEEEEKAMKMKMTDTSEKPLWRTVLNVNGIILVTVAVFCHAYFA
Description: as §1
To determine the selectivity with respect to human SGLT1 an analogous test is set up in which the cDNA for hSGLTI (Genbank Ace. No. NM000343) instead of hSGLT2 cDNA is expressed in CHO-K1 or HEK293 cells.

Sequence of human sodium glucose co-transporter 2 (P31639 whole entry): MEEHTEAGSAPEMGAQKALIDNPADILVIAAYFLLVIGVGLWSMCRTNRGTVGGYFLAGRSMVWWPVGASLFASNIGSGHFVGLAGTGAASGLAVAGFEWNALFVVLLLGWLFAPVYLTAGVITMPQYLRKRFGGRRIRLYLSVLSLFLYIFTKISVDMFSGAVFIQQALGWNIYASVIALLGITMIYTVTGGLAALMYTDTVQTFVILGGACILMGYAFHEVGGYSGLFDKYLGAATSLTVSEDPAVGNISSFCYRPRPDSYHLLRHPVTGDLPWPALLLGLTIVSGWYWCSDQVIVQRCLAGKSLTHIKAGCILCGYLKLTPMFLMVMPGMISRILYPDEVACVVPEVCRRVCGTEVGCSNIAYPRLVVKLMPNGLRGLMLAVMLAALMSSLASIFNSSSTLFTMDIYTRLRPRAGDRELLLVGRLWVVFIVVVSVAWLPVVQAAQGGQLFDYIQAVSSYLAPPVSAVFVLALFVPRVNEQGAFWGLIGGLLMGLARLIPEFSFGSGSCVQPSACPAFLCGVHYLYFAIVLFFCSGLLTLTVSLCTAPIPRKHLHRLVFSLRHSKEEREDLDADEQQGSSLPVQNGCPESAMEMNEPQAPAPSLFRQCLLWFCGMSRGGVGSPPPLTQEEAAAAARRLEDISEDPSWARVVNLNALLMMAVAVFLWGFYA

Structure (SMILES)	IC50 [1] [nM]	IC50 (human SGLT1) [nM]
OC[C@H]1O[C@@H](c2ccc(Cl)c(Cc3ccc4c(c3)CCC3(CCCC3)O4)c2)[C@H](O)[C@@H](O)[C@@H]1O [Example 38, (2S,3R,4R,5S,6R)-2-[4-Chloro-3-(spiro[chromane-2,1′-cyclopentane]-6-ylmethyl)phenyl]-6-(hydroxymethyl)tetrahydropyran-3,4,5-triol]	14.4	–
COc1ccc([C@@H]2O[C@H](CO)[C@@H](O)[C@H](O)[C@H]2O)cc1Cc1ccc2c(c1)NCCO2 [Example 31, (2S,3R,4R,5S,6R)-2-[3-(3,4-Dihydro-2H-benzo[1,4]oxazin-6-ylmethyl)-4-methoxy-phenyl]-6-hydroxymethyl-tetrahydro-pyran-3,4,5-triol]	1.2	404
OC[C@H]1O[C@@H](c2ccc(Cl)c(Cc3ccc4c(c3)N(Cc3ccccc3)CCO4)c2)[C@H](O)[C@@H](O)[C@@H]1O [Example 4, (2S,3R,4R,5S,6R)-2-[3-(4-Benzyl-3,4-dihydro-2H-benzo[1,4]oxazin-6-ylmethyl)-4-chloro-phenyl]-6-hydroxymethyl-tetrahydro-pyran-3,4,5-triol]	65	–
OC[C@H]1O[C@@H](c2ccc(Cl)c(Cc3ccc4c(c3)CCCN4)c2)[C@H](O)[C@@H](O)[C@@H]1O [Example 15, (2S,3R,4R,5S,6R)-2-[4-Chloro-3-(1,2,3,4-tetrahydro-quinolin-6-ylmethyl)-phenyl]-6-hydroxymethyl-tetrahydro-pyran-3,4,5-triol]	0.2	650
CCN1CCOc2cc(Cc3cc([C@@H]4O[C@H](CO)[C@@H](O)[C@H](O)[C@H]4O)ccc3Cl)ccc21 [Example 2, (2S,3R,4R,5S,6R)-2-[4-Chloro-3-(4-ethyl-3,4-dihydro-2H-benzo[1,4]oxazin-7-ylmethyl)-phenyl]-6-hydroxymethyl-tetrahydro-pyran-3,4,5-triol]	11.1	2500
CC1(C)Oc2ccc(Cc3cc([C@@H]4O[C@H](CO)[C@@H](O)[C@H](O)[C@H]4O)ccc3Cl)cc2NC1=O [Example 46, 6-[2-Chloro-5-((2S,3R,4R,5S,6R)-3,4,5-trihydroxy-6-hydroxymethyl-tetrahydro-pyran-2-yl)-benzyl]-2,2-dimethyl-4H-benzo[1,4]oxazin-3-one]	14	> 3900
OC[C@H]1O[C@@H](c2ccc(Cl)c(Cc3ccc4c(c3)C(O)CCO4)c2)[C@H](O)[C@@H](O)[C@@H]1O (stereo partly drawn) [Example 36, (2S,3R,4R,5S,6R)-2-[4-Chloro-3-(4-hydroxy-chroman-6-ylmethyl)-phenyl]-6-hydroxymethyl-tetrahydro-pyran-3,4,5-triol]	28	–
COc1ccc([C@@H]2O[C@H](CO)[C@@H](O)[C@H](O)[C@H]2O)cc1Cc1ccc2c(c1)OCC(=O)N2 [Example 43, 7-[2-Methoxy-5-((2S,3R,4R,5S,6R)-3,4,5-trihydroxy-6-hydroxymethyl-tetrahydro-pyran-2-yl)-benzyl]-4H-benzo[1,4]oxazin-3-one]	3.9	59
OC[C@H]1O[C@@H](c2ccc(Cl)c(Cc3ccc4c(c3)OCCN4)c2)[C@H](O)[C@@H](O)[C@@H]1O [Example 28, (2S,3R,4R,5S,6R)-2-[4-Chloro-3-(3,4-dihydro-2H-benzo[1,4]oxazin-7-ylmethyl)-phenyl]-6-hydroxymethyl-tetrahydro-pyran-3,4,5-triol]	0.33	1000
CC1(C)CNc2cc(Cc3cc([C@@H]4O[C@H](CO)[C@@H](O)[C@H](O)[C@H]4O)ccc3Cl)ccc2O1 [Example 20, (2S,3R,4R,5S,6R)-2-[4-Chloro-3-(2,2-dimethyl-3,4-dihydro-2H-benzo[1,4]oxazin-6-ylmethyl)-phenyl]-6-hydroxymethyl-tetrahydro-pyran-3,4,5-triol]	0.55	> 3700
OC[C@H]1O[C@@H](c2ccc(Cl)c(Cc3ccc4c(c3)CCN4)c2)[C@H](O)[C@@H](O)[C@@H]1O [Example 17, (2S,3R,4R,5S,6R)-2-[4-Chloro-3-(2,3-dihydro-1H-indol-5-ylmethyl)-phenyl]-6-hydroxymethyl-tetrahydro-pyran-3,4,5-triol]	0.8	480
CC(C)c1ccc([C@@H]2O[C@H](CO)[C@@H](O)[C@H](O)[C@H]2O)cc1Cc1ccc2c(c1)NCCO2 [Example 69, (2S,3R,4R,5S,6R)-2-[3-(3,4-Dihydro-2H-benzo[1,4]oxazin-6-ylmethyl)-4-isopropyl-phenyl]-6-hydroxymethyl-tetrahydro-pyran-3,4,5-triol]	1.2	37
OC[C@H]1O[C@@H](c2ccc(Cl)c(Cc3ccc4c(c3)CCO4)c2)[C@H](O)[C@@H](O)[C@@H]1O [Example 22, (2S,3R,4R,5S,6R)-2-[4-Chloro-3-(2,3-dihydro-benzofuran-5-ylmethyl)-phenyl]-6-hydroxymethyl-tetrahydro-pyran-3,4,5-triol]	0.4	–
COc1ccc([C@@H]2O[C@H](CO)[C@@H](O)[C@H](O)[C@H]2O)cc1Cc1ccc2c(c1)OCCO2 [Example 25, (2S,3R,4R,5S,6R)-2-[3-(2,3-Dihydro-benzo[1,4]dioxin-6-ylmethyl)-4-methoxy-phenyl]-6-hydroxymethyl-tetrahydro-pyran-3,4,5-triol]	1.5	40
CN1CCOc2cc(Cc3cc([C@@H]4O[C@H](CO)[C@@H](O)[C@H](O)[C@H]4O)ccc3Cl)ccc21 [Example 1, (2S,3R,4R,5S,6R)-2-[4-Chloro-3-(4-methyl-3,4-dihydro-2H benzo[1,4]oxazin-7-ylmethyl)-phenyl]-6-hydroxymethyl-tetrahydro-pyran-3,4,5-triol]	2.7	655
O=C1COc2ccc(Cc3cc([C@@H]4O[C@H](CO)[C@@H](O)[C@H](O)[C@H]4O)ccc3Cl)cc2N1 [Example 47, 6-(2-chloro-5-((2S,3R,4R,5S,6R)-3,4,5-trihydroxy-6-(hydroxymethyl)tetrahydro-2H-pyran-2-yl)benzyl)-2H-benzo[b][1,4]oxazin-3(4H)-one]	16.5	> 3200
OC[C@H]1O[C@@H](c2ccc(Cl)c(Cc3ccc4c(c3)C3(CCO4)CC3)c2)[C@H](O)[C@@H](O)[C@@H]1O [Example 29, (2S,3R,4R,5S,6R)-2-[4-Chloro-3-(4,4-spiro-cyclopropyl-chroman-6-ylmethyl)-phenyl]-6-hydroxymethyl-tetrahydro-pyran-3,4,5-triol]	84.5	7000
OC[C@H]1O[C@@H](c2ccc(Cl)c(Cc3ccc4c(c3)NCCC4)c2)[C@H](O)[C@@H](O)[C@@H]1O [Example 16, (2S,3R,4R,5S,6R)-2-[4-Chloro-3-(1,2,3,4-tetrahydro-quinolin-7-ylmethyl)-phenyl]-6-hydroxymethyl-tetrahydro-pyran-3,4,5-triol]	0.15	750
OC[C@H]1O[C@@H](c2ccc(OC(F)(F)F)c(Cc3ccc4c(c3)CCCO4)c2)[C@H](O)[C@@H](O)[C@@H]1O [Example 33, (2S,3R,4R,5S,6R)-2-(3-Chroman-6-ylmethyl-4-trifluoromethoxy-phenyl)-6-hydroxymethyl-tetrahydro-pyran-3,4,5-triol]	11	157
OC[C@H]1O[C@@H](c2ccc(Cl)c(Cc3ccc4c(c3)CCCO4)c2)[C@H](O)[C@@H](O)[C@@H]1O [Example 21, (2S,3R,4R,5S,6R)-2-(4-Chloro-3-chroman-6-ylmethyl-phenyl)-6-hydroxymethyl-tetrahydro-pyran-3,4,5-triol]	0.2	1100
OC[C@H]1O[C@@H](c2ccc(Cl)c(Cc3ccc4c(c3)OCCN4C3CC3)c2)[C@H](O)[C@@H](O)[C@@H]1O [Example 3, (2S,3R,4R,5S,6R)-2-[4-Chloro-3-(4-cyclopropyl-3,4-dihydro-2Hbenzo[1,4]oxazin-7ylmethyl)-phenyl]-6-hydroxymethyltetrahydropyran3,4,5-triol]	16	–
OC[C@H]1O[C@@H](c2ccc(Cl)c(Cc3ccc4c(c3)N(CC3CC3)CCO4)c2)[C@H](O)[C@@H](O)[C@@H]1O [Example 10, (2S,3R,4R,5S,6R)-2-[4-Chloro-3-(4-cyclopropylmethyl-3,4-dihydro-2H-benzo[1,4]oxazin-6-ylmethyl)-phenyl]-6-hydroxymethyl-tetrahydro-pyran-3,4,5-triol]	18	–
CCN1CCOc2ccc(Cc3cc([C@@H]4O[C@H](CO)[C@@H](O)[C@H](O)[C@H]4O)ccc3Cl)cc21 [Example 9, (2S,3R,4R,5S,6R)-2-[4-Chloro-3-(4-ethyl-3,4-dihydro-2H-benzo[1,4]oxazin-6-ylmethyl)-phenyl]-6-hydroxymethyl-tetrahydro-pyran-3,4,5-triol]	7.2	–
